Assay results reported in patent publication US11970483B2, “Heterocyclic compound” (Takeda Pharmaceutical Company Limited, priority 2018, dated 2024).

Columns and labels:
[1] = target: T1, human M1 receptor (hCHRM1) (Homo sapiens, UniProt P11229); experiment: Measurement of M1 receptor positive allosteric modulator (M1PAM) activity (IP1 HTRF, in presence of EC20 acetylcholine); assay type: cell-based; conditions: CHO-K1 cells stably expressing hCHRM1; acetylcholine at EC20 concentration; IP1 readout
T1 construct: expressed in transfected cells
T1 sequence (P11229 1-460): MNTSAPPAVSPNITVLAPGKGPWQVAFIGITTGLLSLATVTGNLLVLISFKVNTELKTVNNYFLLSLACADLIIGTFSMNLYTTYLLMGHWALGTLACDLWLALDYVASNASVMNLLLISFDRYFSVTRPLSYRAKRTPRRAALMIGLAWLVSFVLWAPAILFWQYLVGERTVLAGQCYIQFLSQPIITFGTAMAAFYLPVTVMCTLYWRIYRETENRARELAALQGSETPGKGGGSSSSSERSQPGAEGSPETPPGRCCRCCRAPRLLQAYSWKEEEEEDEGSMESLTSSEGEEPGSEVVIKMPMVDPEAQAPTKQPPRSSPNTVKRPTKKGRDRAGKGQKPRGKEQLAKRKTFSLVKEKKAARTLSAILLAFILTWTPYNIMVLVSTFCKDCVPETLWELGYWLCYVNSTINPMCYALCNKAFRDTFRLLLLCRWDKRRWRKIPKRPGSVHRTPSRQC
Protocol: Measurement of M1 Receptor Positive Allosteric Modulator (M1PAM) Activity
The activity of a test compound in the presence of acetylcholine at an EC20 concentration affording about 20% action of the maximum activity was measured as PAM activity.
The method therefor is as follows. To a 384-well white plate (Greiner) was added 4 μL of the test compound diluted with IP1 Stimulation buffer (CisBio) containing 0.1% fatty acid-free BSA containing 80 nM acetylcholine. Freeze stock of CHO-K1 cells stably expressing human M1 receptor (hCHRM1) was prepared with IP1 Stimulation buffer (CisBio) containing 0.1% fatty acid-free BSA, 4 μL thereof was added (10,000 cells/well) and the mixture was cultured in a 5% CO2 incubator at 37° C. for 1 hr. 4 μL of a solution (CisBio) containing IP1-d2 and Anti-IP1-cryptate Tb conjugate was added, the mixture was incubated at room temperature for 1 hr, and the time-resolved fluorescence signal was measured on an Envision plate reader (PerkinElmer). The activity (%) of the test compound was calculated by defining the value when acetylcholine was added at the final concentration of 20 μM as 100% and the value when DMSO was added instead of the test compound under acetylcholine-free conditions as 0%, and the EC50 value was calculated as a value of 50% of the concentration dependence curve of the test compound.

MDR1 = target: T2, MDR1 (Homo sapiens, UniProt P08183); experiment: MDR1 membrane permeability test; assay type: in vitro ADME; conditions: human MDR1-expressing LLC-PK1 cells, 10 μmol/L test compound, pH 7.4, read-out: Efflux ratio (ER)
T2 construct: expressed in transfected cells; host or cells: LLC-PK1 cells (porcine kidney)
T2 sequence (P08183 whole entry): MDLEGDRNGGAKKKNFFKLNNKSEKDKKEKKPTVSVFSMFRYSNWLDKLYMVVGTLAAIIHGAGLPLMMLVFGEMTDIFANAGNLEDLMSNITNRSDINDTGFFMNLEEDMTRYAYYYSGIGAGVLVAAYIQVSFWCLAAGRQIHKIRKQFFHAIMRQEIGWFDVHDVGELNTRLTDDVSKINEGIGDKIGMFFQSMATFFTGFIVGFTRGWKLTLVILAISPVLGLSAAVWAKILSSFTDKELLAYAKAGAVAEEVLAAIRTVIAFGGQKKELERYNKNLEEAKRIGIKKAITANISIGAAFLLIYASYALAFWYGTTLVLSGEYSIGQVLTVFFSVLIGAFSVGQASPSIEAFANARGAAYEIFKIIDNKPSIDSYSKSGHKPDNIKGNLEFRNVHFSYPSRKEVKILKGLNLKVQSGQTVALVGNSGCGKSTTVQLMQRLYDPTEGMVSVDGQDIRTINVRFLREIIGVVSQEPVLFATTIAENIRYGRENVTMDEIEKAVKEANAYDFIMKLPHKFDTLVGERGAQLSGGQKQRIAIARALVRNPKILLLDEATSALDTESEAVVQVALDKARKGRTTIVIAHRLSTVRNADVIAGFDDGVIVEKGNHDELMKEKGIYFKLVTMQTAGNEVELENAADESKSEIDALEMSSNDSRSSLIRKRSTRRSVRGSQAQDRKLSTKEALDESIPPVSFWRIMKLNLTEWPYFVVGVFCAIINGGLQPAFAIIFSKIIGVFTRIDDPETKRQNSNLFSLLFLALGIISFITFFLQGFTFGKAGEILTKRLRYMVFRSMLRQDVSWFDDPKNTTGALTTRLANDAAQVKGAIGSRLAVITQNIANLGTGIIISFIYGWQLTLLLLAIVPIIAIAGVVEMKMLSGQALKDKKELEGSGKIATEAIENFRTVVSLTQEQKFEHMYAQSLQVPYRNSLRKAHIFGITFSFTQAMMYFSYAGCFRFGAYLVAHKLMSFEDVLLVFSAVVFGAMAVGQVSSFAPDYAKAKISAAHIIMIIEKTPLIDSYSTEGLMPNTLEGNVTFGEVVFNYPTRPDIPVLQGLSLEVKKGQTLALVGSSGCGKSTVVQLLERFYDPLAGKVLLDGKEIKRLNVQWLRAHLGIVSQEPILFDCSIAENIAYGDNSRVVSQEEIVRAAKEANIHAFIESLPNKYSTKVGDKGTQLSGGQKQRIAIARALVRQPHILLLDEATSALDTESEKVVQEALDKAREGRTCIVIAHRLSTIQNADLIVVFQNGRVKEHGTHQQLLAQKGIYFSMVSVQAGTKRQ
Protocol: MDR1 membrane permeability test
When MDR1 is expressed in excess in LLC-PK1 cell, which is a polar cell, MDR1 is localized in apical membrane (A), thus promoting transcellular transport from the basement membrane side (B) toward direction A. When a ratio to the transcellular transport in the opposite direction is taken and a ratio to a control cell in which a mock vector has been introduced is further taken, an efflux ratio of MDR1 to simple diffusion (corrected efflux ratio) is calculated. Similarly, when a brain/plasma concentration ratio in Mdr1(−/−) mouse is divided by a brain/plasma concentration ratio in wild-type mouse, an efflux ratio of Mdr1 to simple diffusion in blood-brain barrier (BBB) (Kp, brain ratio, higher value means lower central nervous system permeability) is calculated. Adachi Y. et al. (Reference 1) has reported a positive correlation between corrected efflux ratio and Kp, brain ratio (FIG. 5(C)), and efflux ratio in MDR1 expressing cell and Kp, brain ratio (FIG. 5(B)).
To confirm the central nervous system permeability of the compounds of the present invention, a MDR1 membrane permeability test was performed by the following method.
Digoxin and lucifer yellow (LY) were purchased from Sigma-Aldrich, Diclofenac, colchicine and alprenolol were purchased from Wako Pure Chemical Industries, Ltd., and other reagents used were commercially available products of special grade.
Human MDR1-expressing LLC-PK1 cells were cultured according to the report of Takeuchi et al. (Reference 2). Human MDR1-expressing LLC-PK1 cells were cultured in 10% fetal bovine serum (Invitrogen), 500 μg/ml G418 (Invitrogen), 150 ng/ml colchicine-containing M199 medium (Invitrogen) under 5% CO2 conditions at 37° C.
Transcellular transport was performed according to the report of Sugimoto et al. (Reference 3). The cells were cultured for 3 days on HTS Transwell (registered trademark) 96 well permeable support (pore size 0.4 μm, 0.143 cm^2 surface area, Corning Life Sciences) having polyethylene terephthalate membrane on which the cells had been seeded at 3.45×10^4 cells/well. […] After 1 hr, the sample was collected from the side opposite to the side where the drug solution was added, and the concentration of the test compound was measured by LC-MS/MS. […]
LY was measured by a fluorescence plate reader (Fluoroskan Ascent FL).
Papp, A to B and Papp, B to A (apparent permeability) were calculated from the formula (1), and the efflux ratio (ER) was calculated from the formula (2). […]

Compound	EC50 [1] [nM]	efflux ratio at 1 h, 10 μmol/L (MDR1)
Cc1c(Cc2ccc(C(=O)NCC(=O)N(C)C)c(F)c2)cc(C(=O)N[C@H]2CCOC[C@@H]2O)c2c1CCO2 [Example 28, 1,5-anhydro-2,3-dideoxy-3-({5-[(4-{[2-(dimethylamino)-2-oxoethyl]carbamoyl}-3-fluorophenyl)methyl]-4-methyl-2,3-dihydro-1-benzofuran-7-carbonyl}amino)-L-threo-pentitol]	8.6	12
Cc1c(Cc2ccc(C(=O)NC[C@H]3CCCO3)c(F)c2)cc(C(=O)N[C@H]2CCOC[C@@H]2O)c2c1CCO2 [Example 29, 1,5-anhydro-2,3-dideoxy-3-[(5-{[3-fluoro-4-({[(2R)-oxolan-2-yl]methyl}carbamoyl)phenyl]methyl}-4-methyl-2,3-dihydro-1-benzofuran-7-carbonyl)amino]-L-threo-pentitol]	11	6
COCCNC(=O)c1ccc(Cc2cc(C(=O)N[C@H]3CCOC[C@@H]3O)c3c(c2C)CCO3)cc1F [Example 27, 1,5-anhydro-2,3-dideoxy-3-{[5-({3-fluoro-4-[(2-methoxyethyl)carbamoyl]phenyl}methyl)-4-methyl-2,3-dihydro-1-benzofuran-7-carbonyl]amino}-L-threo-pentitol]	14	6.2
Cc1c(Cc2ccc(-c3cn(C)nn3)cc2)cc(C(=O)N[C@H]2CCOC[C@@H]2O)c2c1CCO2 [Example 1, 1,5-anhydro-2,3-dideoxy-3-[(4-methyl-5-{[4-(1-methyl-1H-1,2,3-triazol-4-yl)phenyl]methyl}-2,3-dihydro-1-benzofuran-7-carbonyl)amino]-L-threo-pentitol]	7.9	3
